16 compounds from patent US10683297B2 (Sunshine Lake Pharma Co., Ltd., priority 2017, dated 2020) can be followed below.

Data set [1] has as its target T1, JAK2 (h) (Homo sapiens, UniProt O60674).
T1 construct: purchased Millipore UK Ltd (assays performed there as a service)
Nature of the data set: JAK2 (h) kinase assay. Format: biochemical. The conditions noted are these: [γ-33P-ATP] 10 μM or KM values; 40 minutes at room temperature. The method, then: Kinase assays can be performed by measurement of incorporation of γ-^33P ATP into immobilized myelin basic protein (MBP). High binding white 384 well plates (Greiner) are coated with MBP (Sigma # M-1891) by incubation of 60 μL well of 20 μg/mL MBP in Tris-buffered saline (TBS; 50 mM Tris pH 8.0, 138 mM NaCl, 2.7 mM KCl) for 24 h at 4° C. Plates are washed 3× with 100 μL TBS. Kinase reactions are carried out in a total volume of 34 μL in kinase buffer (according to the need to make, for example, 5 mM Hepes pH 7.6, 15 mM NaCl, 0.01% bovine gamma globulin (Sigma #1-5506), 10 mM MgCl2, 1 mM DTT, 0.02% TritonX-100). Compound dilutions are performed in DMSO and added to assay wells to a final DMSO concentration of 1%. Each data point is measured in duplicate, and at least two duplicate assays are performed for each individual compound determination. Enzyme is added to final concentrations of 10 nM or 20 nM, for example. A mixture of unlabeled ATP and γ-^33P ATP is added to start the reaction (2×10^6 cpm of γ-^33P ATP per well (3000 Ci/mmole) and 10 μM unlabeled ATP, typically. The reactions are carried out for 1 hour at room temperature with shaking. Plates are washed 7× with TBS, followed by the addition of 50 μL well scintillation fluid (Wallac). Plates are read using a Wallac Trilux counter. This is only one format of such assays; various other formats are possible, as known to one skilled in the art.
(§1) The above assay procedure can be used to determine the IC50 for inhibition and/or the inhibition constant, Ki. […] The IC50 value is estimated by preparing a 10 point curve using a ½ log dilution series (for example, a typical curve may be prepared using the following compound concentrations: 3 μM, 1 μM, 0.3 μM, 0.1 μM, 0.03 μM, 0.01 μM, 0.003 μM, 0.001 μM, 0.0003 μM and 0 μM).
JAK2 (h) is incubated with 8 mM MOPS pH 7.0, 0.2 mM EDTA, 100 μM […], 10 mM MgAcetate and [γ-^33P-ATP] […] The reaction is initiated by the addition of the MgATP mix. After incubation for 40 minutes at room temperature, the reaction is stopped by the addition of 3% phosphoric acid solution. 10 μL of the reaction is then spotted onto a P30 filtermat and washed three times for 5 minutes in 75 mM phosphoric acid and once in methanol prior to drying and scintillation counting.
(§2) The kinase assays described herein were performed at Millipore UK Ltd, Dundee Technology Park, Dundee DD2 1SW, UK.

Data set [2] concerns the target T2, Aurora-B (h) (Homo sapiens, UniProt Q96GD4).
T2 construct: purchased Millipore UK Ltd (assays performed there as a service)
Description: Aurora-B (h) kinase assay. Type of data set: biochemical. The conditions noted are these: [γ-33P-ATP] 10 μM or KM values; 40 minutes at room temperature. The method, then:
as §1
Aurora-B (h) is incubated with 8 mM MOPS pH 7.0, 0.2 mM EDTA, 30 μM […], 10 mM MgAcetate and [γ-^33PATP] […] The reaction is initiated by the addition of the MgATP mix. After incubation for 40 minutes at room temperature, the reaction is stopped by the addition of a 3% phosphoric acid solution. 10 μL of the reaction is then spotted onto a P30 filtermat and washed three times for 5 minutes in 75 mM phosphoric acid and once in methanol prior to drying and scintillation counting.
as §2

Data set [3] is described as follows: Pharmacokinetics after intravenous and oral administration in rats. Type of data set: in vivo. The conditions noted are these: for Clearance (CL) after iv dosing / AUC(0-t) / half-life / Vd: dose 1 mg/kg (Ex. 9: 0.6, Ex. 18: 0.5, Ex. 50: 0.96 mg/kg), iv dosing; for AUC(0-t) / half-life / Vd / bioavailability: rat, plasma; for Vd: read-out: Vss; for bioavailability: oral (generally 5 or 10 mg/kg) versus iv dosing, read-out: F (oral bioavailability). In short, it runs like this: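 Rats dosed i.v. (about 0.5, 0.6, 1 or 2 mg/kg) or p.o. (5 or 10 mg/kg) as solution, suspension or capsule. Plasma sampled over 24 h and quantified by LC/MS/MS in MRM mode with ESI.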

As usually defined, the IC50 is the concentration needed to halve the response being measured. In general, AUC(0-t) refers to exposure summed from dosing to a finite time, without extrapolation to infinity. High values mean more exposure, low ones less exposure. A word on the half-life: it is the time in which the quantity being followed falls by half.

T1 sequence (O60674 whole entry): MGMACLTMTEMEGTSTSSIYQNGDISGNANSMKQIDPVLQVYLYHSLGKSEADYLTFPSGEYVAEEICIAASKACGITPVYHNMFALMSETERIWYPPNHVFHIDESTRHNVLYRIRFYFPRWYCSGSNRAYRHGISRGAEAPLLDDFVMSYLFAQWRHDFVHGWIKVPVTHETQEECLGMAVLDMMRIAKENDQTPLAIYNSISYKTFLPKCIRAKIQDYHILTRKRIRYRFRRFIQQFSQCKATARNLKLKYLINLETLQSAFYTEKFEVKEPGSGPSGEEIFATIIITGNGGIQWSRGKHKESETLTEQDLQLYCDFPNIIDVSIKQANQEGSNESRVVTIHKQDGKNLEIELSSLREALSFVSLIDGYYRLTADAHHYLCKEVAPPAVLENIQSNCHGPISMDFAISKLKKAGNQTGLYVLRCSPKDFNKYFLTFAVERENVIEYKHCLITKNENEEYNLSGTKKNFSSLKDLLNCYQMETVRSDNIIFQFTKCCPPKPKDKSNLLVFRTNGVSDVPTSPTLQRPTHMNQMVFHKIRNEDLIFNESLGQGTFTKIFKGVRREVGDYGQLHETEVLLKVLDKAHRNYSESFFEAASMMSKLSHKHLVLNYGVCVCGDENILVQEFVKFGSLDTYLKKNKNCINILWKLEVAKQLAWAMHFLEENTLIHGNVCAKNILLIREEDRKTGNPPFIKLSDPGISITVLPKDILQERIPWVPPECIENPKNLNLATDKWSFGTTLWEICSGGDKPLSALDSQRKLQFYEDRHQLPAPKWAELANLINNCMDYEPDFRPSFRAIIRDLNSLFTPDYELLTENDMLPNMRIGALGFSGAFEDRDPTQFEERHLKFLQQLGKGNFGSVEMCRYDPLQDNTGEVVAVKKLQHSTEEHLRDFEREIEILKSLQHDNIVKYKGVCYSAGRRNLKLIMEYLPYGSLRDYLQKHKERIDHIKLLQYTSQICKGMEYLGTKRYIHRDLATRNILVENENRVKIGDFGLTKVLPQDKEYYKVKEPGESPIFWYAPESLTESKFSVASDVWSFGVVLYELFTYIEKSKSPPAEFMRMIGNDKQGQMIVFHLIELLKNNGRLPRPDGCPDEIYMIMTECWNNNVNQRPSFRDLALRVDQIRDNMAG
T2 sequence (Q96GD4 whole entry): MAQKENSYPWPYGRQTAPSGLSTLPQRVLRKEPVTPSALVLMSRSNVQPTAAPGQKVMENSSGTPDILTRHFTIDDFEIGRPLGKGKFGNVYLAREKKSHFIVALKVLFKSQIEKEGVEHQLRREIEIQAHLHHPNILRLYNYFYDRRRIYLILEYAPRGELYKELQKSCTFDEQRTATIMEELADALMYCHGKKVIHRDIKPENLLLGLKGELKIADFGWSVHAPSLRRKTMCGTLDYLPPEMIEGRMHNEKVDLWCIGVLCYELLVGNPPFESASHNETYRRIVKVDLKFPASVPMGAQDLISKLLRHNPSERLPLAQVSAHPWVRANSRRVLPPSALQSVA

With `CCC1CN(c2ccc(C#N)nn2)CCC1Nc1nc(Nc2ccn3c(C)cnc3c2)ncc1Cl` (stereo not shown) [Example 3, 6-(4-((5-chloro-2-((3-methylimidazo[1,2-a]pyridin-7-yl)amino)pyrimidin-4-yl)amino)-3-ethylpiperidin-1-yl)pyridazine-3-carbonitrile], the IC50 was found to be 2 nM in data set [1] and 102 nM in data set [2].

`Cc1cnc2cc(Nc3ncc(Cl)c(NC4CCN(c5ccc(C#N)nn5)CC4)n3)ccn12` [Example 12, 6-(4-((5-chloro-2-((3-methylimidazo[1,2-a]pyridin-7-yl)amino)pyrimidin-4-yl)amino)piperidin-1-yl)pyridazine-3-carbonitrile]: the results for the IC50 in data set [1] and in data set [2] were 16 nM and 115 nM, respectively.

Take `N#Cc1ccc(N2CCC(Nc3nc(Nc4ccn5c(C(F)F)nnc5c4)ncc3Cl)CC2)nc1` [Example 30, 6-(4-((5-chloro-2-((3-(difluoromethyl)-[1,2,4]triazolo[4,3-a]pyridin-7-yl)amino)pyrimidin-4-yl)amino)piperidin-1-yl)nicotinonitrile]: in data set [3], the “Clearance (CL) after iv dosing” value turned out to be 2.83 mL/min/kg, the AUC(0-t) is 5130 ng·h/mL, the half-life was 2.61 h and the Vd came out at 0.61 L/kg. The bioavailability in data set [3] is 116%. This compound returned an IC50 in data set [1] of 10 nM.

Regarding `Cc1nc2cc(Nc3ncc(Cl)c(NC4CCN(c5ccc(C#N)cn5)CC4)n3)ccn2n1` [Example 32, 6-(4-((5-chloro-2-((2-methyl-[1,2,4]triazolo[1,5-a]pyridin-7-yl)amino)pyrimidin-4-yl)amino)piperidin-1-yl)nicotinonitrile], in data set [3], the “Clearance (CL) after iv dosing” value came to 14.2 mL/min/kg, the AUC(0-t) worked out at 2020 ng·h/mL, the half-life is 1.53 h and the Vd was 0.96 L/kg. Also, in data set [3], the bioavailability amounted to 180%. In data set [1], this compound showed an IC50 of 7 nM.

Take `CC(C)(O)c1nc2cc(Nc3ncc(Cl)c(NC4CCN(c5ccc(C#N)cn5)CC4)n3)ccn2n1` [Example 39, 6-(4-((5-chloro-2-((2-(2-hydroxypropan-2-yl)-[1,2,4]triazolo[1,5-a]pyridin-7-yl)amino)pyrimidin-4-yl)amino)piperidin-1-yl)nicotinonitrile]: in data set [3], the “Clearance (CL) after iv dosing” value stood at 5.83 mL/min/kg, the AUC(0-t) amounted to 2830 ng·h/mL, the half-life was 4.65 h and the Vd was found to be 1.25 L/kg. Also, in data set [3], the bioavailability was 52%. The compound also registered an IC50 in data set [1] of 5 nM.

For the compound `CC(C)(O)c1nnc2cc(Nc3ncc(Cl)c(NC4CCN(c5ccc(C#N)cn5)CC4)n3)ccn12` [Example 40], the IC50 in data set [1] stood at 1 nM.

For `Cn1cnc2cc(Nc3ncc(Cl)c(NC4CCN(c5ccc(C#N)cn5)CC4)n3)ccc21` [Example 46, 6-(4-((5-chloro-2-((1-methyl-1H-benzo[d]imidazol-5-yl)amino)pyrimidin-4-yl)amino)piperidin-1-yl)nicotinonitrile], in data set [3], the “Clearance (CL) after iv dosing” value came out at 4.83 mL/min/kg, the AUC(0-t) came out at 3400 ng·h/mL, the half-life was 1.01 h and the Vd amounted to 0.42 L/kg. In addition, the bioavailability in data set [3] stood at 126%. Besides, in data set [1], it took 1 nM to reach half-maximal inhibition (IC50).

Consider `Cn1nnc2cc(Nc3ncc(Cl)c(NC4CCN(c5ccc(C#N)nn5)CC4)n3)ccc21` [Example 47, 6-(4-((5-chloro-2-((l-methyl-1H-benzo[d][1,2,3]triazol-5-yl)amino)pyrimidin-4-yl)amino)piperidin-1-yl)pyridazine-3-carbonitrile], for which, in data set [3], the “Clearance (CL) after iv dosing” value was 11.7 mL/min/kg, the AUC(0-t) came out at 1490 ng·h/mL, the half-life is 0.78 h and the Vd is 0.87 L/kg. In addition, the bioavailability in data set [3] came to 144%. In data set [1], this compound showed a 50% inhibitory concentration (IC50) of 7 nM.

As to `Cc1nc2cc(Nc3ncc(Cl)c(NC4CCN(c5ccc(C#N)cn5)CC4)n3)ccc2n1C` [Example 48, 6-(4-((5-chloro-2-((1,2-dimethyl-1H-benzo[d]imidazol-5-yl)amino)pyrimidin-4-yl)amino)piperidin-1-yl)nicotinonitrile], in data set [3], the “Clearance (CL) after iv dosing” value turned out to be 11.2 mL/min/kg, the exposure AUC(0-t) turned out to be 1510 ng·h/mL, the half-life was 1.08 h and the Vd worked out at 0.89 L/kg. Moreover, the bioavailability in data set [3] came out at 79.4%. Further, it took 0.7 nM to reach half-maximal inhibition in data set [1] (IC50).

Turning to `CC(C)(O)c1nc2cc(Nc3ncc(Cl)c(NC4CCN(c5ccc(C#N)nn5)CC4)n3)ccn2n1` [Example 55, 6-(4-((5-chloro-2-((2-(2-hydroxypropan-2-yl)-[1,2,4]triazolo[1,5-a]pyridin-7-yl)amino)pyrimidin-4-yl)amino)piperidin-1-yl)pyridazine-3-carbonitrile], the IC50 was found to be 14 nM in data set [1] and 200 nM in data set [2].

In data set [1], `CC(O)Cc1nc2cc(Nc3ncc(Cl)c(NC4CCN(c5ccc(C#N)nn5)CC4)n3)ccn2n1` (stereo not shown) [Example 56, 6-(4-((5-chloro-2-((2-(2-hydroxypropyl)-[1,2,4]triazolo[1,5-a]pyridin-7-yl)amino)pyrimidin-4-yl)amino)piperidin-1-yl)pyridazine-3-carbonitrile] showed an IC50 of 15 nM.

Turning to `N#Cc1ccc(N2CCC(Nc3nc(Nc4ccc5c(c4)nnn5CC4CC4)ncc3Cl)CC2)nc1` [Example 60, 6-(4-((5-chloro-2-((1-(cyclopropylmethyl)-1H-benzo[d][1,2,3]triazol-5-yl)amino)pyrimidin-4-yl)amino)piperidin-1-yl)nicotinonitrile], the IC50 is 4 nM in data set [1] and 216 nM in data set [2].

With `CC(O)Cn1cnc2cc(Nc3ncc(Cl)c(NC4CCN(c5ccc(C#N)cn5)CC4)n3)ccc21` (stereo not shown) [Example 61, 6-(4-((5-chloro-2-((1-(2-hydroxypropyl)-1H-benzo[d]imidazol-5-yl)amino)pyrimidin-4-yl)amino)piperidin-1-yl)nicotinonitrile], the IC50 is 1 nM in data set [1] and 50 nM in data set [2].

Take `CC(C)(O)Cc1nnc2cc(Nc3ncc(Cl)c(NC4CCN(c5ccc(C#N)cn5)CC4)n3)ccn12` [Example 74, 6-(4-((5-chloro-2-((3-(2-hydroxy-2-methylpropyl)-[1,2,4]triazolo[4,3-a]pyridin-7-yl)amino)pyrimidin-4-yl)amino)piperidin-1-yl)nicotinonitrile]: the IC50 in data set [1] is 4 nM; in data set [2], 46 nM.

`CC(C)(O)Cc1nnc2cc(Nc3ncc(Cl)c(NC4CCN(c5ccc(C#N)nn5)CC4)n3)ccn12` [Example 75, 6-(4-((5-chloro-2-((3-(2-hydroxy-2-methylpropyl)-[1,2,4]triazolo[4,3-a]pyridin-7-yl)amino)pyrimidin-4-yl)amino)piperidin-1-yl)pyridazine-3-carbonitrile]: the IC50 stood at 8 nM in data set [1] and 184 nM in data set [2].

On to `CC(C)(O)Cc1nc2ccc(Nc3ncc(Cl)c(NC4CCN(c5ccc(C#N)nn5)CC4)n3)cn2n1` [Example 79, 6-(4-((5-chloro-2-((2-(2-hydroxy-2-methylpropyl)-[1,2,4]triazolo[1,5-a]pyridin-6-yl)amino)pyrimidin-4-yl)amino)piperidin-1-yl)pyridazine-3-carbonitrile], for which, in data set [3], the “Clearance (CL) after iv dosing” value was determined as 272 mL/min/kg, the AUC(0-t) was determined as 1020 ng·h/mL, the half-life is 0.762 h and the Vd is 1.23 L/kg. In addition, the bioavailability in data set [3] was found to be 42.1%. In addition, in data set [1], the IC50 was 102 nM.
